Patent US20240174696A1, “2,8-DIAZASPIRO[4.5]DECANE COMPOUNDS” (Genentech, Inc., priority 2021, published 2024)
Structures can show the parent of a compound that is named as a salt.

Molecular target: Human LATS2 catalytic domain (Homo sapiens (Human), UniProt Q9NRM7)
Experiment: LATS2 High ATP HTRF Assay
Assay type: biochemical
Details: no asterisk: LATS2 High ATP HTRF Assay, 5000 μM ATP, 0.05 nM LATS2
Description: Human LATS2 catalytic domain which contains the amino acids G553-V1088 (accession NP_055387) was purified in-house. The LATS2 catalytic domain was co-purified with Mob1b (accession NP_775739). The LATS2 biochemical HTRF assay was performed using the HTRF KinEASE-STK S1 Kit (Cisbio, Cat #62ST1PEC), following the protocol from the manufacturer. Compounds were dispensed by the Echo Liquid Handler (Labcyte) into a white 384-well plate (PerkinElmer, Cat #6008289). 3 uL of 2×LATS2 enzyme solution was added to the compounds, following by a 10 minute incubation at room temperature. Then, 2×ATP and STK S1 peptide solution was added to initiate the one hour enzyme reaction at room temperature. The final condition of the reaction was 0.2 nM LATS2, 50 μM ATP, 0.5 μM STK S1 peptide in 50 mM HEPES pH7.2, 10 mM MgCl2, 0.1% BGG, 0.005% Brij-35, 1 mM DTT. The reaction was quenched by adding 6 uL of the detection mixture which contained Streptavidin XL665 and STK Antibody-Cryptate (Cisbio), incubate for 1 hour at room temperature. The HTRF (665 nm/620 nm) signal was read on the Envision plater reader (PerkinElmer). The IC50 values were determined by fitting the % inhibition with a nonlinear four-parameter logistical equation. The Ki values were calculated using the Cheng-Prusoff equation for a competitive inhibitor, IC50═Ki (1+S/Km)+M [E] with ATP Km for LATS2=105 μM.
The LATS2 high ATP HTRF assay was performed using the same protocol as the Standard LATS2 HTRF assay. The final condition of the reaction was 0.05 nM LATS2, 5000 μM ATP, 0.5 μM STK S1 peptide in 50 mM HEPES pH7.2, 10 mM MgCl2, 0.1% BGG, 0.005% Brij-35, 1 mM DTT and the 2 hours enzyme reaction at room temperature.

Human LATS2 catalytic domain, sequence (Q9NRM7 553-1088): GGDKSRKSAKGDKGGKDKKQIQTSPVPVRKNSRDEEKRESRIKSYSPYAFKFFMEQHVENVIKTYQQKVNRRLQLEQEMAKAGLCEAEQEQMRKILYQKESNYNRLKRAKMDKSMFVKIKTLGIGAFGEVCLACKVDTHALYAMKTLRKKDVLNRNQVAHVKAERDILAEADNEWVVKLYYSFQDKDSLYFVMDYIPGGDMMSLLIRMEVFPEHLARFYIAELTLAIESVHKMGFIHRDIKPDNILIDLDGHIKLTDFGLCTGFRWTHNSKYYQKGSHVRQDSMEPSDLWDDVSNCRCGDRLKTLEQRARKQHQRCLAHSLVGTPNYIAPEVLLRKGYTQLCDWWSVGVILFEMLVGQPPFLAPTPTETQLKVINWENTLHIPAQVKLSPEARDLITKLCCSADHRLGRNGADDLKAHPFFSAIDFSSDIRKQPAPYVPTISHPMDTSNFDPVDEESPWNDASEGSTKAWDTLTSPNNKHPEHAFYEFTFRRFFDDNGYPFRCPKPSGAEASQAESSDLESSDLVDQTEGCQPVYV
Human LATS2 catalytic domain, sequence (Q7L9L4 whole entry partner, the tested form may be a part): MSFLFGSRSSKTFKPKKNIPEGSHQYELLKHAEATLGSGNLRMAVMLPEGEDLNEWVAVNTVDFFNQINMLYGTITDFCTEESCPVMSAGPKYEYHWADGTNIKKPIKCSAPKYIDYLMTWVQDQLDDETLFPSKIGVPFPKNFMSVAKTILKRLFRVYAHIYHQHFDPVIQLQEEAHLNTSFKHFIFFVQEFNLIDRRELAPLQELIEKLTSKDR

| SMILES | Ki |
| --- | --- |
| N#Cc1cnccc1-c1nc(N2CCC3(CCNC3)CC2)c2ccncc2n1 [Compound 183, 4-(4-(2,8-diazaspiro[4.5]decan-8-yl)pyrido[3,4-d]pyrimidin-2-yl)nicotinonitrile] | 17.5 nM |
| CC(=O)N1CC(Oc2cncc3nc(-c4ccncc4)nc(N4CCC5(CCN(C)C5)CC4)c23)C1 [Compound 278, 1-(3-((4-(2-Methyl-2,8-diazaspiro[4.5]decan-8-yl)-2-(pyridin-4-yl)pyrido[3,4-d]pyrimidin-5-yl)oxy)azetidin-1-yl)ethan-1-one] | 11 nM |
| CC(=O)N1CCC2(CCN(c3nc(-c4ccncc4)nc4cnccc34)CC2)C1 [Compound 125, 1-(8-(2-(pyridin-4-yl)pyrido[3,4-d]pyrimidin-4-yl)-2,8-diazaspiro[4.5]decan-2-yl)ethan-1-one] | 16.7 nM |
| c1cc(-c2nc(N3CCC4(CCNC4)CC3)c3c(C4CC4)cncc3n2)ccn1 [Compound 191, 5-cyclopropyl-2-(pyridin-4-yl)-4-(2,8-diazaspiro[4.5]decan-8-yl)pyrido[3,4-d]pyrimidine] | 0.028 nM |
| O=C(C1CC2(CCN(c3nc(-c4ccncc4)nc4cnccc34)CC2)CN1)N1CCCC1 (stereo not drawn) [Compound 174, (8-(2-(pyridin-4-yl)pyrido[3,4-d]pyrimidin-4-yl)-2,8-diazaspiro[4.5]decan-3-yl)(pyrrolidin-1-yl)methanone] | 11.1 nM |
| CN1CCC2(CCN(c3nc(-c4ccncc4)nc4cnc(C(F)(F)F)cc34)CC2)C1 [Example 209, 4-(2-methyl-2,8-diazaspiro[4.5]decan-8-yl)-2-(pyridin-4-yl)-6-(trifluoromethyl)pyrido[3,4-d]pyrimidine] | 45 nM |
| c1cc(-c2cc(N3CCC4(CCNC4)CC3)c3ccncc3n2)ccn1 [Example 200, 2-(Pyridin-4-yl)-4-(2,8-diazaspiro[4.5]decan-8-yl)-1,7-naphthyridine] | 14.6 nM |
| O=C(C1CC2(CCN(c3nc(-c4ccncc4)nc4cnccc34)CC2)CN1)N1CCOCC1 (stereo not drawn) [Compound 175, morpholino(8-(2-(pyridin-4-yl)pyrido[3,4-d]pyrimidin-4-yl)-2,8-diazaspiro[4.5]decan-3-yl)methanone] | 22.6 nM |
| FC(F)(F)Cc1cc2c(N3CCC4(CCNC4)CC3)nc(-c3ccncc3)nc2cn1 [Compound 193, 2-(pyridin-4-yl)-4-(2,8-diazaspiro[4.5]decan-8-yl)-6-(2,2,2-trifluoroethyl)pyrido[3,4-d]pyrimidine] | 0.041 nM |
| CN1CCC2(CCN(c3nc(-c4ccncc4)nc4cnc(CC(F)(F)F)cc34)CC2)C1 [Compound 195, 4-(2-methyl-2,8-diazaspiro[4.5]decan-8-yl)-2-(pyridin-4-yl)-6-(2,2,2-trifluoroethyl)pyrido[3,4-d]pyrimidine] | 0.039 nM |
| COc1nccc2c(N3CCC4(CCN(C)C4)CC3)nc(-c3ccncc3)nc12 [Example 203, 8-methoxy-4-(2-methyl-2,8-diazaspiro[4.5]decan-8-yl)-2-(pyridin-4-yl)pyrido[3,4-d]pyrimidine] | 80.2 nM |
| Cc1nn(C)cc1-c1nc(N2CCC3(CC2)CCN(C2CCCC2)C3)c2ccncc2n1 [Example 208, 4-(2-cyclopentyl-2,8-diazaspiro[4.5]decan-8-yl)-2-(1,3-dimethyl-1H-pyrazol-4-yl)pyrido[3,4-d]pyrimidine] | 60 nM |
| Cc1n[nH]cc1-c1nc(N2CCC3(CCN(C)C3)CC2)c2cc(CC(F)(F)F)ncc2n1 [Compound 194, 2-(3-methyl-1H-pyrazol-4-yl)-4-(2-methyl-2,8-diazaspiro[4.5]decan-8-yl)-6-(2,2,2-trifluoroethyl)pyrido[3,4-d]pyrimidine] | 0.12 nM |
| Fc1[nH]ncc1-c1nc(N2CCC3(CCNC3)CC2)c2ccncc2n1 [Compound 188, 2-(5-fluoro-1H-pyrazol-4-yl)-4-(2,8-diazaspiro[4.5]decan-8-yl)pyrido[3,4-d]pyrimidine] | 5.96 nM |

Results, then the compound that gave them:

| Ki | SMILES |
| --- | --- |
| 0.97 nM | O[C@H]1CC[C@@H]1N1CCC2(CCN(c3nc(-c4ccncc4)nc4cnccc34)CC2)C1 (single isomer, unassigned) [Compound 178] |
| 0.096 nM | COc1cncc2nc(-c3ccncc3)nc(N3CCC4(CCN(CC(C)(O)C(F)(F)F)C4)CC3)c12 (stereo not drawn) [Compound 283, 1,1,1-Trifluoro-3-[8-[5-methoxy-2-(4-pyridyl)pyrido[3,4-d]pyrimidin-4-yl]-2,8-diazaspiro[4.5]decan-2-yl]-2-methyl-propan-2-ol] |
| 0.015 nM | COc1cncc2nc(-c3cn[nH]c3C)nc(N3CCC4(CCN(CC(F)F)C4)CC3)c12 [Compound 281, 4-(2-(2,2-difluoroethyl)-2,8-diazaspiro[4.5]decan-8-yl)-5-methoxy-2-(5-methyl-1H-pyrazol-4-yl)pyrido[3,4-d]pyrimidine] |
| 1.38 nM | FC(F)(F)Cc1nccc2c(N3CCC4(CCNC4)CC3)nc(-c3ccncc3)nc12 [Compound 192, 2-(pyridin-4-yl)-4-(2,8-diazaspiro[4.5]decan-8-yl)-8-(2,2,2-trifluoroethyl)pyrido[3,4-d]pyrimidine] |
| 19.1 nM | c1cc(-c2nc(N3CCC4(CCN(c5cc[nH]n5)C4)CC3)c3ccncc3n2)ccn1 [Compound 139, 4-(2-(1H-pyrazol-3-yl)-2,8-diazaspiro[4.5]decan-8-yl)-2-(pyridin-4-yl)pyrido[3,4-d]pyrimidine] |
| 0.25 nM | Cc1n[nH]cc1-c1nc(N2CCC3(CCN(CCS(=O)(=O)N(C)C)C3)CC2)c2ccncc2n1 [Example 210, N,N-dimethyl-2-(8-(2-(3-methyl-1H-pyrazol-4-yl)pyrido[3,4-d]pyrimidin-4-yl)-2,8-diazaspiro[4.5]decan-2-yl)ethanesulfonamide] |
| 6.58 nM | CCC(=O)NCc1cc2c(N3CCC4(CCNC4)CC3)nc(-c3ccncc3)nc2cn1 [Compound 159, N-((2-(pyridin-4-yl)-4-(2,8-diazaspiro[4.5]decan-8-yl)pyrido[3,4-d]pyrimidin-6-yl)methyl)propionamide] |
| 19 nM | Cc1n[nH]cc1-c1nc(N2CCC3(CCNC3)CC2)c2ccnc(O)c2n1 [Example 237, 2-(3-methyl-1H-pyrazol-4-yl)-4-(2,8-diazaspiro[4.5]decan-8-yl)pyrido[3,4-d]pyrimidin-8-ol] |
| 51.4 nM | N#Cc1[nH]ncc1-c1nc(N2CCC3(CCNC3)CC2)c2ccncc2n1 [Compound 155, 4-(4-(2,8-diazaspiro[4.5]decan-8-yl)pyrido[3,4-d]pyrimidin-2-yl)-1H-pyrazole-5-carbonitrile] |
| 4.1 nM | CN1CCC2(CCN(c3nc(-c4ccncc4)nc4c(C#N)nccc34)CC2)C1 [Compound 284, 4-(2-Methyl-2,8-diazaspiro[4.5]decan-8-yl)-2-(pyridin-4-yl)pyrido[3,4-d]pyrimidine-8-carbonitrile] |
| 7.4 nM | CN(C)C(=O)C1CC2(CCN(c3nc(-c4ccncc4)nc4cnccc34)CC2)CN1 (stereo not drawn) [Compound 173, N,N-dimethyl-8-(2-(pyridin-4-yl)pyrido[3,4-d]pyrimidin-4-yl)-2,8-diazaspiro[4.5]decane-3-carboxamide] |
| 88.4 nM | c1ccc(N2CCC3(CCN(c4nc(-c5ccncc5)nc5cnccc45)CC3)C2)cc1 [Compound 140, 4-(2-phenyl-2,8-diazaspiro[4.5]decan-8-yl)-2-(pyridin-4-yl)pyrido[3,4-d]pyrimidine] |
| 0.039 nM | COc1cncc2nc(-c3ccncc3)nc(N3CCC4(CCN(CC5(F)COC5)C4)CC3)c12 [Compound 282, 4-[2-[(3-Fluorooxetan-3-yl)methyl]-2,8-diazaspiro[4.5]decan-8-yl]-5-methoxy-2-(4-pyridyl)pyrido[3,4-d]pyrimidine] |
| 11.3 nM | c1cc(-c2cc(N3CCC4(CCNC4)CC3)c3ccncc3n2)ncn1 [Example 201, 2-(pyrimidin-4-yl)-4-(2,8-diazaspiro[4.5]decan-8-yl)-1,7-naphthyridine trifluoroacetate] |
| 13 nM | Cc1cnsc1-c1nc(N2CCC3(CCNC3)CC2)c2ccncc2n1 [Compound 244, 5-(4-(2,8-diazaspiro[4.5]decan-8-yl)pyrido[3,4-d]pyrimidin-2-yl)-4-methylisothiazole] |
| 23 nM | [O-][n+]1ccc2c(N3CCC4(CCNC4)CC3)nc(-c3ccncc3)nc2c1 [Example 207, 2-(pyridin-4-yl)-4-(2,8-diazaspiro[4.5]decan-8-yl)pyrido[3,4-d]pyrimidine 7-oxide] |
